Measured values published in patent US20140148484A1, “PYRAZOLE COMPOUNDS FOR TREATING HAIRLOSS” (Boehringer Ingelheim International GmbH, priority 2012, published 2014).
pKi: −log10 of the molar value.

Target: T1, human CRTH2 receptor (Homo sapiens, UniProt Q9Y5Y4)
T1 construct: host or cells: CHO-K1 (CHO-K1-hCRTH2 cells); membranes prepared in house from the purchased cell line
T1 sequence (Q9Y5Y4 1-395): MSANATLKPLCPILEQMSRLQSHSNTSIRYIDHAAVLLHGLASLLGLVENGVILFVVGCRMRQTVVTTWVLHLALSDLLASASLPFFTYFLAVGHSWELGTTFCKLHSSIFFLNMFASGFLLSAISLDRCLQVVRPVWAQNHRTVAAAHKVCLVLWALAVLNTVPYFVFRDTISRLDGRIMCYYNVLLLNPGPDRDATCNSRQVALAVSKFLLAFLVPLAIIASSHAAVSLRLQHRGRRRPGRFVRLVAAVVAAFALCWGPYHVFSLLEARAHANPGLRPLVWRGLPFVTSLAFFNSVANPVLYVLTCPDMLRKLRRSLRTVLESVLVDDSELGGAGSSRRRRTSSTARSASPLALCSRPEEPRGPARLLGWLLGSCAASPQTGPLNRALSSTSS
Experiment: Human CRTH2 receptor membrane radioligand binding assay (SPA, [3H]-PGD2)
Conditions: displacement of [3H]-PGD2 (1 nM) from CHO-K1-hCRTH2 cell membranes, 3 h room temperature
Description: Preparation of Human CRTH2 Receptor Membranes and Radioligand Binding Assay
The binding of CRTH2 antagonists is determined using membranes prepared from Chinese hamster ovary cells (CHO-K1 cells) transfected with the human CRTH2 receptor (CHO-K1-hCRTH2 cells, Perkin Elmer, Cat No ES-561-C). To produce cell membranes the CHO-K1-hCRTH2 cells are cultured in suspension in CHO SFMII medium supplemented with 400 μg/ml G418. The cells are harvested by centrifugation at 300 g for 10 min at room temperature. The cell pellet is resuspended in Phosphate Buffer Saline (PBS) including a protease inhibitor mix (Complete, Roche) and adjusted to a concentration of 10E7 cells/ml. The CHO-K1-hCRTH2 cells are disrupted by nitrogen […] to obtain the membrane preparation. Cell debris is removed by centrifugation (500 g at 4° C., 30 min) and the supernatant is transferred into fresh tubes followed by a second centrifugation at 40000 g for 1 h at 4° C. to sediment the membranes. The membranes are suspended in SPA incubation buffer (50 mM Tris HCl, 10 mM MgCl2, 150 mM NaCl, 1 mM EDTA, pH 7.4) without bovine serum albumin, homogenized by passing through a single use needle (Terumo, 23G×1″), and stored in aliquots at −80° C.
The CRTH2 receptor binding assay is performed in a scintillation proximity assay (SPA) format with the radioligand [^3H]-PGD2 (Perkin Elmer, NET616000MC). CHO-K1-hCRTH2 cell membranes are again homogenized by passing through a single use needle (Terumo, 23G×1″) and diluted in SPA incubation buffer in suitable concentrations (0.5-10 μg protein/well). The SPA assay is set up in 96 well microtiter plates (Perkin Elmer, CatNo. 6005040) in SPA incubation buffer with a final volume of 200 μl per well and final concentration of 50 mM Tris-HCl, 10 mM MgCl2, 150 mM NaCl, 1 mM EDTA pH 7.4, 0.1% bovine serum albumin). The SPA assay mixture contains 60 μl of the membrane suspension, 80 μl of Wheat Germ Agglutinin coated PVT beads (GE Healthcare, RPNQ-0001, 0.3 mg/well), 40 μl of [3H]-PGD2 diluted in SPA buffer to a final concentration of 1 nM (50 000 dpm) and 20 μl of the test compound (dissolved in dimethylsulfoxid). The SPA assay mixture is incubated for 3 h at room temperature. Bound radioactivity is determined with a scintillation counter (Micro Beta Trilux, Wallac).
The binding of [^3H]-PGD2 to CHO-K1-hCRTH2 cell membranes is determined in the absence (total binding, Bo) and presence (non-specific binding, NSB) of unlabelled PGD2 (1 μM, Cayman Chemical, Cat No 12010) or a reference CRTH2 antagonist (10 μM CAY10471, Cayman Chemical, Cat No 10006735).
Determination of the affinity of a test compound is calculated by subtraction of the non-specific binding (NSB) from the total binding (Bo) or the binding in the presence of the test compound (B) at a given compound concentration. […] The Bo−NSB value is set to 0% inhibition.

pKi | SMILES
8.55 | CCc1nn(Cc2ccc(NC(=O)c3ccc(Cl)cc3Br)cc2)c(CC)c1CC(=O)O [Example 2.24]
7.33 | CCc1nn(Cc2ccc(NC(=O)c3cccc(C)c3Br)cc2)c(CC)c1CC(=O)O [Example 2.25]
8.44 | CCc1nn(Cc2ccc(NC(=O)c3ccc4ccccc4c3Br)cc2)c(CC)c1CC(=O)O [Example 2.26]
8.37 | CCCc1c(C)cccc1C(=O)Nc1ccc(Cn2nc(CC)c(CC(=O)O)c2CC)cc1 [Example 2.27]
7.77 | CCc1nn(Cc2ccc(NC(=O)c3cccc(C)c3CC(C)C)cc2)c(CC)c1CC(=O)O [Example 2.28]
8.20 | CCc1nn(Cc2ccc(NC(=O)c3ccccc3C3CCCCC3)cc2)c(CC)c1CC(=O)O [Example 2.29]
8.24 | CCc1nn(Cc2ccc(NC(=O)C(C)(C)C)cc2)c(CC)c1CC(=O)O [Example 2.30]
8.30 | CCc1nn(Cc2ccc(NC(=O)C3CCC3)cc2)c(CC)c1CC(=O)O [Example 2.31]
8.59 | CCc1nn(Cc2ccc(NC(=O)C3CCCC3)cc2)c(CC)c1CC(=O)O [Example 2.32]
9.10 | CCc1nn(Cc2ccc(NC(=O)C3[C@H]4C[C@@H]5C[C@@H](C[C@H]3C5)C4)cc2)c(CC)c1CC(=O)O (stereo partly shown) [Example 2.33]
8.37 | CCc1nn(Cc2ccc(NC(=O)C(C)C)cc2)c(CC)c1CC(=O)O [Example 2.34]
7.94 | CCc1nn(Cc2ccc(NC(=O)c3ccccc3C3CC3)cc2)c(CC)c1CC(=O)O [Example 2.35]
7.76 | O=C(O)Cc1c(-c2ccccc2)nn(Cc2ccc(NC(=O)c3ccc(Cl)cc3)cc2)c1-c1ccccc1 [Example 2.43]
7.99 | O=C(O)Cc1c(-c2ccccc2)nn(Cc2ccc(NC(=O)c3ccc4ccccc4c3)cc2)c1-c1ccccc1 [Example 2.44]
8.05 | O=C(O)Cc1c(-c2ccccc2)nn(Cc2ccc(NC(=O)c3ccc(C(F)(F)F)cc3)cc2)c1-c1ccccc1 [Example 2.45]
9.22 | CCc1c(CC(=O)O)c(C2CC2)nn1Cc1ccc(NC(=O)c2ccc(Cl)cc2C)cc1 [Example 2.46]
10.00 | CCc1c(CC(=O)O)c(C2CC2)nn1Cc1ccc(NC(=O)c2ccc(C(F)(F)F)cc2)cc1 [Example 2.47]
8.74 | CCc1nn(Cc2ccc(NC(=O)c3cccc4ccccc34)cc2)c(C2CC2)c1CC(=O)O [Example 2.48]
9.22 | CCc1nn(Cc2ccc(NC(=O)c3ccc(Cl)cc3C)cc2)c(C2CC2)c1CC(=O)O [Example 2.49]
10.00 | CCc1nn(Cc2ccc(NC(=O)c3ccc(C(F)(F)F)cc3)cc2)c(C2CC2)c1CC(=O)O [Example 2.50]

pKi | SMILES
8.46 | CCc1c(CC(=O)O)c(C2CC2)nn1Cc1ccc(NC(=O)c2cccc3ccccc23)cc1 [Example 2.51]
9.30 | CCc1c(CC(=O)O)c(C)nn1Cc1ccc(NC(=O)c2ccc(C(F)(F)F)cc2)cc1 [Example 2.52]
9.70 | CCc1nn(Cc2ccc(NC(=O)c3ccc(C(F)(F)F)cc3)cc2)c(C)c1CC(=O)O [Example 2.53]
7.67 | Cc1c(CC(=O)O)cnn1Cc1ccc(NC(=O)c2ccc3ccccc3c2)cc1 [Example 2.55]
7.56 | Cc1c(CC(=O)O)cnn1Cc1ccc(NC(=O)c2ccc(Cl)c(Cl)c2)cc1 [Example 2.56]
7.71 | Cc1nn(Cc2ccc(NC(=O)c3ccc4ccccc4c3)cc2)cc1CC(=O)O [Example 2.57]
7.61 | Cc1c(CC(=O)O)cnn1Cc1ccc(NC(=O)c2ccc3ccccc3c2)cc1 [Example 2.58]
7.76 | CCc1c(CC(=O)O)cnn1Cc1ccc(NC(=O)c2ccc3ccccc3c2)cc1 [Example 2.59]
8.38 | COc1c(CC(=O)O)c(C)nn1Cc1ccc(NC(=O)c2ccc3ccccc3c2)cc1 [Example 2.60]
8.42 | Cc1nn(Cc2ccc(NC(=O)OCc3ccccc3)cc2)c(C)c1CC(=O)O [Example 3.1]
6.10 | Cc1nn(Cc2ccc(NC(=O)OCc3ccccc3)cc2)c(C)c1CCC(=O)O [Example 3.2]
9.52 | CCc1nn(Cc2ccc(NC(=O)OCc3ccccc3)cc2)c(CC)c1CC(=O)O [Example 3.3]
9.30 | Cc1nn(Cc2ccc(NC(=O)OCc3ccc(Cl)c(Cl)c3)cc2)c(C)c1CC(=O)O [Example 3.4]
7.77 | Cc1nn(Cc2ccc(NC(=O)OCc3ccccc3Cl)cc2)c(C)c1CC(=O)O [Example 3.5]
7.83 | Cc1nn(Cc2ccc(NC(=O)OCc3ccccc3Br)cc2)c(C)c1CC(=O)O [Example 3.6]
9.22 | Cc1nn(Cc2ccc(NC(=O)OCc3ccc4ccccc4c3)cc2)c(C)c1CC(=O)O [Example 3.7]
7.54 | Cc1nn(Cc2ccc(NC(=O)OC(C)(C)C)cc2)c(C)c1CC(=O)O [Example 3.8]
10.00 | CCc1nn(Cc2ccc(NC(=O)OCc3ccc(Cl)c(Cl)c3)cc2)c(CC)c1CC(=O)O [Example 3.9]
8.28 | CCc1nn(Cc2ccc(NC(=O)OCc3ccccc3Cl)cc2)c(CC)c1CC(=O)O [Example 3.10]
8.46 | CCc1nn(Cc2ccc(NC(=O)OCc3ccccc3Br)cc2)c(CC)c1CC(=O)O [Example 3.11]

pKi | SMILES
10.00 | CCc1nn(Cc2ccc(NC(=O)OCc3ccc4ccccc4c3)cc2)c(CC)c1CC(=O)O [Example 3.12]
8.33 | Cc1nn(Cc2ccc(NC(=O)OCc3ccccc3)cc2Cl)c(C)c1CC(=O)O [Example 3.13]
8.05 | Cc1nn(Cc2ccc(NC(=O)OCc3ccccc3)cc2F)c(C)c1CC(=O)O [Example 3.14]
7.77 | Cc1nn(Cc2ccc(NC(=O)NCc3ccccc3)cc2)c(C)c1CC(=O)O [Example 4.1]
7.36 | Cc1nn(Cc2ccc(NS(=O)(=O)c3ccccc3)cc2)c(C)c1CC(=O)O [Example 5.1]
7.47 | Cc1nn(Cc2ccc(NS(=O)(=O)c3ccc(Cl)cc3)cc2)c(C)c1CC(=O)O [Example 5.2]
7.51 | Cc1nn(Cc2ccc(NS(=O)(=O)c3ccc(Cl)c(Cl)c3)cc2)c(C)c1CC(=O)O [Example 5.3]
6.64 | Cc1nn(Cc2ccc(NS(=O)(=O)c3ccc(C(F)(F)F)cc3)cc2)c(C)c1CC(=O)O [Example 5.4]
6.36 | Cc1nn(Cc2ccc(NCc3ccc(Cl)cc3)cc2)c(C)c1CC(=O)O [Example 6.1]
6.51 | Cc1nn(Cc2ccc(NCc3ccccc3)cc2)c(C)c1CC(=O)O [Example 6.2]
6.58 | Cc1nn(Cc2ccc(NCc3ccc(C(F)(F)F)cc3)cc2)c(C)c1CC(=O)O [Example 6.3]
6.39 | Cc1cc(Cn2nc(C)c(CC(=O)O)c2C)ccc1NC(=O)c1ccccc1 [Example 7.1]
6.79 | Cc1cc(Cn2nc(C)c(CC(=O)O)c2C)ccc1NC(=O)c1ccc(Cl)cc1 [Example 7.2]
7.87 | Cc1cc(Cn2nc(C)c(CC(=O)O)c2C)ccc1NC(=O)c1ccc(C(F)(F)F)cc1 [Example 7.3]
8.66 | Cc1cc(Cn2nc(C)c(CC(=O)O)c2C)ccc1NC(=O)c1ccc(Cl)c(Cl)c1 [Example 7.4]
9.52 | Cc1cc(NC(=O)c2ccc3ccccc3c2)ccc1Cn1nc(C)c(CC(=O)O)c1C [Example 7.5]
8.92 | Cc1nn(Cc2ccc(NC(=O)c3ccc(Cl)cc3)cc2Cl)c(C)c1CC(=O)O [Example 7.6]
8.47 | Cc1cc(Cl)ccc1C(=O)Nc1ccc(Cn2nc(C)c(CC(=O)O)c2C)c(Cl)c1 [Example 7.7]
